Assay results as given in patent US8293909B2, “Compounds for the treatment of hepatitis C” (Bristol-Myers Squibb Company, priority 2008, dated 2012).

Experiments:
[1] = molecular target: T1, HCV NS5B RdRp genotype 1b (Hepatitis C virus genotype 1b, UniProt Q9WMX2); assay: HCV NS5B RdRp enzyme assay (standard / modified); type: biochemical; details: HCV NS5B genotype 1b
T1 construct: The protein was expressed with an 18 amino acid C-terminal truncation to enhance the solubility; made in house; host or cells: E. coli BL21(DE3), pET21a vector
T1 sequence (Q9WMX2 2420-2992): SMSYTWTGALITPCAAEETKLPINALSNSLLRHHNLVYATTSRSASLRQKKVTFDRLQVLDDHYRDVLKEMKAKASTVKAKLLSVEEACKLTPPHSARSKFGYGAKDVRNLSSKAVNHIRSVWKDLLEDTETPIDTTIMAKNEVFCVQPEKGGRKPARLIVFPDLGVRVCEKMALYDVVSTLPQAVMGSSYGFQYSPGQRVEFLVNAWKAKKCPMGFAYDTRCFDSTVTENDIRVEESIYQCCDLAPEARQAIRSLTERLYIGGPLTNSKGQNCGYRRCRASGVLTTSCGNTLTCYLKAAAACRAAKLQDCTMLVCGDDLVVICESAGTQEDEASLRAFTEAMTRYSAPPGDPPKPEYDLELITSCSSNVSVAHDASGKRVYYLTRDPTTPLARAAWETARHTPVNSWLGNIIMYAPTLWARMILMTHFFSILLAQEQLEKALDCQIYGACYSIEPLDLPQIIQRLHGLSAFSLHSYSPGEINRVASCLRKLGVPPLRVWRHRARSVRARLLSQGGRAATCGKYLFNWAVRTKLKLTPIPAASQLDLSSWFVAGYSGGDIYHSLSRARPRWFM
Method: HCV NS5B RdRp cloning, expression, and purification. The cDNA encoding the NS5B protein of HCV, genotype 1b, was cloned into the pET21a expression vector. The protein was expressed with an 18 amino acid C-terminal truncation to enhance the solubility. The E. coli competent cell line BL21(DE3) was used for expression of the protein. Cultures were grown at 37° C. for ˜4 hours until the cultures reached an optical density of 2.0 at 600 nm. The cultures were cooled to 20° C. and induced with 1 mM IPTG. Fresh ampicillin was added to a final concentration of 50 μg/ml and the cells were grown overnight at 20° C.
Cell pellets (3 L) were lysed for purification to yield 15-24 mgs of purified NS5B. The lysis buffer consisted of 20 mM Tris-HCl, pH 7.4, 500 mM NaCl, 0.5% triton X-100, 1 mM DTT, 1 mM EDTA, 20% glycerol, 0.5 mg/ml lysozyme, 10 mM MgCl2, 15 ug/ml deoxyribonuclease I, and Complete™ protease inhibitor tablets (Roche). After addition of the lysis buffer, frozen cell pellets were resuspended using a tissue homogenizer. To reduce the viscosity of the sample, aliquots of the lysate were sonicated on ice using a microtip attached to a Branson sonicator. The sonicated lysate was centrifuged at 100,000×g for 1 hr at 4° C. and filtered through a 0.2 μm filter unit (Corning).
The protein was purified using three sequential chromatography steps: Heparin sepharose CL-6B, polyU sepharose 4B, and Hitrap SP sepharose (Pharmacia). The chromatography buffers were identical to the lysis buffer but contained no lysozyme, deoxyribonuclease I, MgCl2 or protease inhibitor and the NaCl concentration of the buffer was adjusted according to the requirements for charging the protein onto the column. Each column was eluted with a NaCl gradient which varied in length from 5-50 column volumes depending on the column type. After the final chromatography step, the resulting purity of the enzyme is >90% based on SDS-PAGE analysis. The enzyme was aliquoted and stored at −80° C.
Standard HCV NS5B RdRp enzyme assay. HCV RdRp genotype 1b assays were run in a final volume of 60 μl in 96 well plates (Costar 3912). The assay buffer is composed of 20 mM Hepes, pH 7.5, 2.5 mM KCl, 2.5 mM MgCl2, 1 mM DTT, 1.6 U RNAse inhibitor (Promega N2515), 0.1 mg/ml BSA (Promega R3961), and 2% glycerol. All compounds were serially diluted (3-fold) in DMSO and diluted further in water such that the final concentration of DMSO in the assay was 2%. HCV RdRp genotype 1b enzyme was used at a final concentration of 28 nM. A polyA template was used at 6 nM, and a biotinylated oligo-dT12 primer was used at 180 nM final concentration. Template was obtained commercially (Amersham 27-4110). Biotinylated primer was prepared by Sigma Genosys. 3H-UTP was used at 0.6 μCi (0.29 μM total UTP). Reactions were initiated by the addition of enzyme, incubated at 30° C. for 60 min, and stopped by adding 25 μl of 50 mM EDTA containing SPA beads (4 μg/μl, Amersham RPNQ 0007). Plates were read on a Packard Top Count NXT after >1 hr incubation at room temperature.
Modified HCV NS5B RdRp enzyme assay. A modified enzyme assay was performed essentially as described for the standard enzyme assay except for the following: The biotinylated oligo dT12 primer was precaptured on streptavidin-coated SPA beads by mixing primer and beads in assay buffer and incubating at room temperature for one hour. Unbound primer was removed after centrifugation. The primer-bound beads were resuspended in 20 mM Hepes buffer, pH 7.5 and used in the assay at final concentrations of 20 nM primer and 0.67 μg/μl beads. Order of addition in the assay: enzyme (14 nM) was added to diluted compound followed by the addition of a mixture of template (0.2 nM), 3H-UTP (0.6 μCi, 0.29 μM), and primer-bound beads, to initiate the reaction; concentrations given are final. Reactions were allowed to proceed for 4 hours at 30° C.
IC50 values for compounds were determined using seven different [I]. […]

HCV replicon cells = assay: HCV replicon assay (FRET or luciferase readout); type: cell-based
Text: FRET Assay Preparation. To perform the HCV FRET screening assay, 96-well cell culture plates were used. The FRET peptide (Anaspec, Inc.) (Taliani et al., Anal. Biochem. 1996, 240, 60-67) contains a fluorescence donor, EDANS, near one end of the peptide and an acceptor, DABCYL, near the other end. The fluorescence of the peptide is quenched by […] resonance energy transfer (RET) between the donor and the acceptor, but as the NS3 protease cleaves the peptide the products are released from RET quenching and the fluorescence of the donor becomes apparent. The assay reagent was made as follows: 5× cell Luciferase cell culture lysis reagent from Promega (#E153A) diluted to 1× with dH2O, NaCl added to 150 mM final, the FRET peptide diluted to 20 μM final from a 2 mM stock.
To prepare plates, HCV replicon cells, with or without a Renilla luciferase reporter gene, were trypsinized and placed into each well of a 96-well plate with titrated test compounds added in columns 3 through 12; columns 1 and 2 contained a control compound (HCV protease inhibitor), and the bottom row contained cells without compound. The plates were then placed in a CO2 incubator at 37° C.
Assays. Subsequent to addition of the test compounds described above (FRET Assay Preparation), at various times the plate was removed and Alamar blue solution (Trek Diagnostics, #00-100) was added per well as a measure of cellular toxicity. After reading in a Cytoflour 4000 instrument (PE Biosystems), plates were rinsed with PBS and then used for FRET assay by the addition of 30 ul of the FRET peptide assay reagent described above (FRET Assay Preparation) per well. The plate was then placed into the Cytoflour 4000 instrument which had been set to 340 excite/490 emission, automatic mode for 20 cycles and the plate read in a kinetic mode. Typically, the signal to noise using an endpoint analysis after the reads was at least three-fold. Alternatively, after Alamar blue reading, plates were rinsed with PBS, 50 ul of DMEM (high glucose) without phenol red was added and plates were then used for luciferase assay using the Promega Dual-Glo Luciferase Assay System.
Compound analysis was determined by quantification of the relative HCV replicon inhibition and the relative cytotoxicity values. To calculate cytoxicity values, the average Alamar Blue fluorescence signals from the control wells were set as 100% non-toxic. The individual signals in each of the compound test wells were then divided by the average control signal and multiplied by 100% to determine […]. To calculate the HCV replicon inhibition values, an average background value was obtained from the two wells containing the highest amount of HCV protease inhibitor at the end of the assay period. These numbers were similar to those obtained from naïve Huh-7 cells.
The background numbers were then subtracted from the average signal obtained from the control wells and this number was used as 100% activity. The individual signals in each of the compound test wells were then divided by the averaged control values after background subtraction and multiplied by 100% to determine percent activity. EC50 values for a protease inhibitor titration were calculated as the concentration which caused a 50% reduction in FRET or luciferase activity. The two numbers generated for the compound plate, percent cytoxicity and percent activity were used to determine compounds of interest for further analysis.

| SMILES | IC50 ([1]; Table 1) [nM] | EC50 (HCV replicon cells; Hepatitis C virus, Table 1) [nM] | also measured |
| --- | --- | --- | --- |
| CNC(=O)c1c(-c2ccccc2)nn2cc(N3CCCCS3(=O)=O)ccc12 | > 10000 | > 10000 | – |
| CNC(=O)c1c(-c2ccc(F)cc2)nn2ccc(NC(=O)c3ccccc3OC)cc12 | > 10000 | > 10000 | – |
| CNC(=O)c1c(-c2ccc(F)cc2)nn2ccc(-c3cc(C(=O)NC4(c5ccccc5)CC4)ccc3C)cc12 [drawing 87] | 2 to 250 | 2 to 250 | – |
| CNC(=O)c1c(-c2ccc(F)cc2)nn2ccc(-c3cc(C(=O)NC(C)(C)C)ccc3OC)cc12 | 2 to 250 | 250 to 1000 | – |
| CNC(=O)c1c(-c2ccc(F)cc2)[nH]c2ccc(-c3cccc(C(=O)NC(C)(C)c4ccccc4)c3)cc12 [drawing 181] | – | – | IC50 ([1]; Table 2): 720 nM; EC50 (HCV replicon cells; Hepatitis C virus, Table 2): 460 nM |
| CNC(=O)c1c(-c2ccc(F)cc2)nc2ccc(-c3cccc(C(=O)NC(C)(C)C)c3)cn12 [drawing 77] | 250 to 1000 | 250 to 1000 | – |
| CNC(=O)c1c(-c2ccc(F)cc2)nn2ccc(-c3cc(C(=O)NC4(c5ccccc5)CC4)ccc3C)cc12 [drawing 173] | – | – | IC50 ([1]; Table 2): 4.75 nM; EC50 (HCV replicon cells; Hepatitis C virus, Table 2): 2.37 nM |
| CNC(=O)c1c(-c2ccc(F)cc2)nn2ccc(-c3cc(C(=O)NC4(c5ccccn5)CC4)c(OC)nc3C)c(F)c12 | – | 2 to 250 | – |
| CC(C)(NC(=O)c1cccc(-c2ccn3nc(-c4ccccc4)c(C(=O)O)c3c2)c1)c1ccccc1 | > 10000 | > 10000 | – |
| CNC(=O)c1c2cc(-c3cc(C(=O)NC(C)(C)c4ccccc4)ccc3C)ccc2nn1-c1ccc(F)cc1 | 2 to 250 | 2 to 250 | – |
| CNC(=O)c1c(-c2ccc(F)cc2)nn2cc(N(CCO)S(C)(=O)=O)c(-c3cccc(C(=O)NC4(c5ccccn5)CC4)c3)cc12 [drawing 86] | 2 to 250 | 1000 to 10000 | – |
| CNC(=O)c1c(-c2ccccc2)nn2cc(-c3ccccc3C)ccc12 | > 10000 | > 10000 | – |
| CNC(=O)c1c(-c2ccc(F)cc2)nc2ccc(-c3cc(C(=O)NC(C)(C)c4ccccc4)ccc3C)cn12 | 2 to 250 | 2 to 250 | – |
| CNC(=O)c1c(-c2ccc(F)cc2)nc2ccc(-c3cc(C(=O)NC4(c5ccccn5)CC4)c(OC)cc3Cl)cn12 [drawing 124] | – | 250 to 1000 | – |
| CNC(=O)c1c(-c2ccc(F)cc2)nn2ccc(-c3cc(F)cc(C(=O)NC4(c5ccccn5)CC4)c3)c(F)c12 | – | 1000 to 10000 | – |
| CNC(=O)c1c(-c2ccc(F)cc2)nn2ccc(-c3cc(C(=O)NC4(c5ccccc5)CC4)c(OC)nc3C)c(F)c12 | – | 2 to 250 | – |

| SMILES | IC50 ([1]; Table 1) [nM] | EC50 (HCV replicon cells; Hepatitis C virus, Table 1) [nM] | also measured |
| --- | --- | --- | --- |
| CNC(=O)c1c(-c2ccc(F)cc2)nc2ccc(-c3ccc(-c4ccccc4Cl)c(C(=O)NCC(C)C)c3)cn12 [drawing 121] | – | 2 to 250 | – |
| CNC(=O)c1c(-c2ccc(F)cc2)nn2ccc(-c3cc(F)cc(C(=O)NC4(c5ccccc5)CC4)c3)c(F)c12 | – | > 10000 | – |
| CNC(=O)c1c(-c2ccc(F)cc2)nn2ccc(-c3cc(C(=O)NC4(c5ncccn5)CC4)c(OCC4CCOCC4)nc3C)c(F)c12 | – | 2 to 250 | – |
| CNC(=O)c1c(-c2ccc(F)cc2)nn2ccc(-c3cc(C(=O)NC4(c5nc(C)no5)CC4)cc(F)c3C)c(F)c12 | – | 2 to 250 | – |
| CNC(=O)c1c(-c2ccc(F)cc2)nn2ccc(-c3cc(C(=O)NC4(c5nnc(-c6ccccc6)[nH]5)CC4)c(OC)cc3C)c(F)c12 | – | 2 to 250 | – |
| CNC(=O)c1c(-c2ccc(F)cc2)nn2ccc(-c3cc(C(=O)NC4(c5ccccn5)CC4)c(OCC4CCOCC4)nc3C)c(F)c12 | – | 2 to 250 | – |
| CNC(=O)c1c(-c2ccc(F)cc2)nc2ccc(-c3ccc(-c4cccnc4)c(C(=O)NCC(C)C)c3)cn12 | – | 250 to 1000 | – |
| CNC(=O)c1c(-c2ccc(F)cc2)nn2ccc(-c3cc(C(=O)NC4(c5ccccn5)CC4)cc(F)c3C)c(F)c12 | – | 2 to 250 | – |
| CNC(=O)c1c(-c2ccc(F)cc2)nn2ccc(-c3cc(C(=O)NC4(c5ccccn5)CC4)c(OC(F)F)nc3C)c(F)c12 | – | 2 to 250 | – |
| CNC(=O)c1c(-c2ccc(F)cc2)nc2ccc(C3CC3C(=O)NC3(c4ccccn4)CC3)cn12 (stereo not shown) [drawing 160] | – | – | EC50 (HCV replicon cells; Table 1): > 10000 nM |
| CNC(=O)c1c(-c2ccc(F)cc2)nn2ccc(-c3cc(C(=O)NC4(c5cnccn5)CC4)c(OC)cc3C)c(F)c12 | – | 2 to 250 | – |
| CNC(=O)c1c(-c2ccc(F)cc2)nn2ccc(-c3cc(C(=O)NC4(c5ccccc5)CC4)cc(F)c3C)c(F)c12 [drawing 138] | – | 2 to 250 | – |
| CNC(=O)c1c(-c2ccc(F)cc2)nn2cc(N(CCO)S(C)(=O)=O)c(-c3cc(C(=O)NC4(c5ccccc5)CC4)ccc3C)cc12 | 2 to 250 | – | – |
| CNC(=O)c1c(-c2ccc(F)cc2)nn2ccc(-c3cc(C(=O)NC4(c5cc(F)ccn5)CC4)c(OC)nc3C)c(F)c12 | – | 2 to 250 | – |
| CNC(=O)c1c(-c2ccc(F)cc2)nn2ccc(-c3cc(C(=O)NC4(c5ccccc5)CC4)c(OC(F)F)nc3C)c(F)c12 | – | 2 to 250 | – |
